Measured values taken from ChEMBL document CHEMBL4813942, “Hydrated Rubrolides from the New Zealand Tunicate Synoicum kuranui” (2021).
Converted amounts (≈) assume the structure as drawn. The source made the active and inactive calls. The rule behind the calls is not given here.

Assays:
Staphylococcus aureus [1] = assay: Antibacterial activity against methicillin-sensitive Staphylococcus aureus ATCC 25923 assessed as bacterial growth inhibition measured after 16 hrs by serial dilution method; assay type: functional
Bacillus subtilis = assay: Antibacterial activity against Bacillus subtilis 168 assessed as bacterial growth inhibition measured after 16 hrs by serial dilution method; assay type: functional; details: subsp. subtilis str. 168
Staphylococcus aureus [2] = assay: Antibacterial activity against methicillin-resistant Staphylococcus aureus ATCC 43300 assessed as bacterial growth inhibition measured after 16 hrs by serial dilution method; assay type: functional
HCT-116 [3] = assay: Cytotoxicity against human HCT-116 cells assessed as reduction in cell growth at 12.8 uM measured after 48 hrs by MTS assay; assay type: functional, cell-based
HCT-116 [4] = assay: Cytotoxicity against human HCT-116 cells assessed as reduction in cell growth at 0.06 to 30 uM measured after 48 hrs by MTS assay; assay type: functional, cell-based; details: dose 0.06-30 µM

## O=C1C=C(c2cc(Br)c(O)c(Br)c2)C(O)(Cc2ccc(O)c(Br)c2)O1 (centres undefined)
Staphylococcus aureus [1]
  MIC: > 128 µg/mL
Bacillus subtilis
  MIC: > 128 µg/mL
Staphylococcus aureus [2]
  MIC: > 128 µg/mL
HCT-116 [3]
  Activity: Active

## O=C1OC(O)(Cc2ccc(O)cc2)C(c2cc(Br)c(O)c(Br)c2)=C1Cl (centres undefined)
Staphylococcus aureus [1]
  MIC: 128 µg/mL (≈ 261 µM)
Bacillus subtilis
  MIC: 128 µg/mL (≈ 261 µM)
Staphylococcus aureus [2]
  MIC: 128 µg/mL (≈ 261 µM)
HCT-116 [4]
  Activity: inactive

## CN(C)[C@@H]1C(O)=C(C(N)=O)C(=O)[C@@]2(O)C(O)=C3C(=O)c4c(O)cccc4[C@@](C)(O)[C@H]3C[C@@H]12 [TETRACYCLINE]
Staphylococcus aureus [1]
  MIC: < 0.25 µg/mL
Bacillus subtilis
  MIC: 2 µg/mL (≈ 4.5 µM)
Staphylococcus aureus [2]
  MIC: < 0.25 µg/mL

## O=C1C=C(c2cc(Br)c(O)c(Br)c2)/C(=C/c2cc(Br)c(O)c(Br)c2)O1 [RUBROLIDE A]
Staphylococcus aureus [1]
  MIC: 8 µg/mL (≈ 13.4 µM)
Bacillus subtilis
  MIC: 2 µg/mL (≈ 3.36 µM)
Staphylococcus aureus [2]
  MIC: 2 µg/mL (≈ 3.36 µM)
HCT-116 [4]
  Activity: inactive

## O=C1C=C(c2cc(Br)c(O)c(Br)c2)C(O)(Cc2cc(Br)c(O)c(Br)c2)O1 (centres undefined)
Staphylococcus aureus [1]
  MIC: 32 µg/mL (≈ 52.1 µM)
Bacillus subtilis
  MIC: 32 µg/mL (≈ 52.1 µM)
Staphylococcus aureus [2]
  MIC: 16 µg/mL (≈ 26.1 µM)
HCT-116 [4]
  Activity: inactive
